According to US7989494B2, “Polymorphs of N-hydroxy-3-[4-[[[2-(2-methyl-1H-indol-3-yl)ethyl]amino]methyl]phenyl]-2E-2-propenamide” (Novartis AG, priority 2006, dated 2011):
In brackets after ≈: the same amount, converted by molar mass. Structures can show the parent of a compound that is named as a salt. Where two headings read alike, the source gives them in different places.

How the values were obtained:
Assay type in all cases: physicochemical
[1] = Equilibration in solvents and aqueous media, solid form by XRPD
[2] = Hygroscopicity (descriptive)
[3] = Aqueous solubility; details: water
[4] = Solubility in organic solvents; details: for solubility: organic solvent or mixture
[5] = Sorption-desorption isotherms, VTI humidity balance; details: for Sorption: 25° C., first sorption cycle; for Desorption: in % (unit assumed)
Procedure: Sorption-desorption isotherms were recorded by a VTI humidity balance. The salts of (N-hydroxy-3-[4-[[[2-(2-methyl-1H-indol-3-yl)ethyl]amino]methyl]phenyl]-2E-2-propenamide were first subjected to a drying step (25° C., r.h. below 2%, 2 hours) and then to a sorption-desorption-sorption sequence, with each RH % step retained for 3 hours. The free base was kept below 2% r.h. for several hours, and thus was completely dehydrated after the drying step. Only the data of the first sorption cycle are given in the table, since, in all cases, the two sorption cycles were very similar.

[6] = Intrinsic dissolution
[7] = Hydration/dehydration of free base forms on storage or under vacuum; details: for form change upon storage: storage at ambient conditions

Question: Which “form observed on equilibration” value ([1]; at 0° C. and 10° C. and in acetone/water mixture) does the source give for Cc1[nH]c2ccccc2c1CCNCc1ccc(/C=C/C(=O)NO)cc1 (racemic) [Form A of the DL-lactate salt, N-hydroxy-3-[4-[[[2-(2-methyl-1H-indol-3-yl)ethyl]amino]methyl]phenyl]-2E-2-propenamide] here?
Answer: observed along with form HA

Question: What about the “relative stability of the form” value ([1]; in water and in most organic solvents) of the same molecule?
Answer: more stable than the other forms of the DL-lactate salt

Question: And the “form after equilibration at pH 1 and 2” value [1]?
Answer: the chloride salt is formed

Question: And the “form conversion under most circumstances” value [1]?
Answer: does not convert into any other form

Question: What about the hygroscopicity [2] of the same molecule?
Answer: slightly hygroscopic

Question: Which results are given for Cc1[nH]c2ccccc2c1CCNCc1ccc(/C=C/C(=O)NO)cc1 (racemic) [Form HA of the DL-lactate salt, N-hydroxy-3-[4-[[[2-(2-methyl-1H-indol-3-yl)ethyl]amino]methyl]phenyl]-2E-2-propenamide]?
Answer: XRPD form after equilibration ([1]; Methanol): converts to form SA; form after equilibration at pH 1 and 2 [1]: the chloride salt is formed; form conversion under most circumstances [1]: slowly converts into form A; hygroscopicity [2]: slightly hygroscopic

Question: Which aqueous solubility [3] does the source give for Cc1[nH]c2ccccc2c1CCNCc1ccc(/C=C/C(=O)NO)cc1 [Form A of the L-tartarate salt, N-hydroxy-3-[4-[[[2-(2-methyl-1H-indol-3-yl)ethyl]amino]methyl]phenyl]-2E-2-propenamide] here?
Answer: 3.5 mg/mL

Question: What about the “XRPD form after equilibration” value ([1]; 0.1 N HCl) of the same molecule?
Answer: chloride salt

Question: And the “XRPD form after equilibration” value ([1]; 2-Propanol)?
Answer: No change

Question: And the “XRPD form after equilibration” value ([1]; Acetone)?
Answer: Form C of the tartarate salt is obtained

Question: And the “XRPD form after equilibration” value ([1]; Acetone, listed as L-Tartarate)?
Answer: No change

Question: What about the “XRPD form after equilibration” value ([1]; Ethanol) of the same molecule?
Answer: No change

Question: And the “XRPD form after equilibration” value ([1]; Ethyl Acetate)?
Answer: No change

Question: And the “XRPD form after equilibration” value ([1]; Methanol)?
Answer: converts to form C

Question: What about the “XRPD form after equilibration” value ([1]; Methanol, listed as L-Tartarate) of the same molecule?
Answer: Changed to new

Question: And the “XRPD form after equilibration” value ([1]; pH = 6.8 buffer (phosphate))?
Answer: free base

Question: And the “XRPD form after equilibration” value ([1]; water)?
Answer: No change

Question: And the hygroscopicity [2]?
Answer: slightly hygroscopic

Question: What about the “solubility in acetone, ethyl acetate and other common organic solvents” value ([4]; acetone, ethyl acetate and other common organic solvents) of the same molecule?
Answer: good solubility

Question: And the solubility in alcohols ([4]; alcohols)?
Answer: limited solubility

Question: What about the “moisture at 85% r.h.” value ([5]; 85% r.h.) of the same molecule?
Answer: less than 0.5%

Question: And the Sorption ([5]; Sample RH % 1.5)?
Answer: 0%

Question: What about the Sorption ([5]; Sample RH % 5) of the same molecule?
Answer: 0.04%

Question: And the Desorption ([5]; Sample RH % 5)?
Answer: −0.09

Question: And the Sorption ([5]; Sample RH % 25)?
Answer: 0.11%

Question: And the Desorption ([5]; Sample RH % 25)?
Answer: 0.03

Question: And the Sorption ([5]; Sample RH % 50)?
Answer: 0.2%

Question: And the Desorption ([5]; Sample RH % 50)?
Answer: 0.16

Question: What about the Sorption ([5]; Sample RH % 75) of the same molecule?
Answer: 0.31%

Question: And the Desorption ([5]; Sample RH % 75)?
Answer: 0.36

Question: What about the Sorption ([5]; Sample RH % 85) of the same molecule?
Answer: 0.35%

Question: And the Desorption ([5]; Sample RH % 85)?
Answer: 0.42

Question: And the Sorption ([5]; Sample RH % 95)?
Answer: 0.49%

Question: What about the Desorption ([5]; Sample RH % 95) of the same molecule?
Answer: 0.49

Question: What about the intrinsic dissolution [6] of the same molecule?
Answer: good

Question: With Cc1[nH]c2ccccc2c1CCNCc1ccc(/C=C/C(=O)NO)cc1 [Form A of the acetate salt, N-hydroxy-3-[4-[[[2-(2-methyl-1H-indol-3-yl)ethyl]amino]methyl]phenyl]-2E-2-propenamide] as the molecule, how does the aqueous solubility [3] read?
Answer: ~2 mg/mL

Question: Which aqueous solubility [3] does the source give for Cc1[nH]c2ccccc2c1CCNCc1ccc(/C=C/C(=O)NO)cc1 [Form A of the benzoate salt, N-hydroxy-3-[4-[[[2-(2-methyl-1H-indol-3-yl)ethyl]amino]methyl]phenyl]-2E-2-propenamide] here?
Answer: ~0.7 mg/mL

Question: For Cc1[nH]c2ccccc2c1CCNCc1ccc(/C=C/C(=O)NO)cc1 [Form A of the hemi-fumarate salt, N-hydroxy-3-[4-[[[2-(2-methyl-1H-indol-3-yl)ethyl]amino]methyl]phenyl]-2E-2-propenamide], which aqueous solubility [3] is on record?
Answer: ~0.4 mg/mL

Question: Which aqueous solubility [3] does the source give for Cc1[nH]c2ccccc2c1CCNCc1ccc(/C=C/C(=O)NO)cc1 [Form A of the hemi-malate salt, N-hydroxy-3-[4-[[[2-(2-methyl-1H-indol-3-yl)ethyl]amino]methyl]phenyl]-2E-2-propenamide] here?
Answer: ~1.4 mg/mL

Question: With Cc1[nH]c2ccccc2c1CCNCc1ccc(/C=C/C(=O)NO)cc1 [Form A of the hemi-succinate salt, N-hydroxy-3-[4-[[[2-(2-methyl-1H-indol-3-yl)ethyl]amino]methyl]phenyl]-2E-2-propenamide] as the molecule, how does the aqueous solubility [3] read?
Answer: ~0.4 mg/mL

Question: For Cc1[nH]c2ccccc2c1CCNCc1ccc(/C=C/C(=O)NO)cc1 [Form A of the phosphate salt, N-hydroxy-3-[4-[[[2-(2-methyl-1H-indol-3-yl)ethyl]amino]methyl]phenyl]-2E-2-propenamide], which aqueous solubility [3] is on record?
Answer: ~6 mg/mL

Question: Which aqueous solubility [3] does the source give for Cc1[nH]c2ccccc2c1CCNCc1ccc(/C=C/C(=O)NO)cc1 [Form A of the propionate salt, N-hydroxy-3-[4-[[[2-(2-methyl-1H-indol-3-yl)ethyl]amino]methyl]phenyl]-2E-2-propenamide] here?
Answer: ~4 mg/mL

Question: For Cc1[nH]c2ccccc2c1CCNCc1ccc(/C=C/C(=O)NO)cc1 [Form A of the sulfate salt, N-hydroxy-3-[4-[[[2-(2-methyl-1H-indol-3-yl)ethyl]amino]methyl]phenyl]-2E-2-propenamide], which hygroscopicity [2] is on record?
Answer: visibly hygroscopic

Question: Which hygroscopicity [2] does the source give for Cc1[nH]c2ccccc2c1CCNCc1ccc(/C=C/C(=O)NO)cc1 [Form B of the tartarate salt, N-hydroxy-3-[4-[[[2-(2-methyl-1H-indol-3-yl)ethyl]amino]methyl]phenyl]-2E-2-propenamide] here?
Answer: hygroscopic

Question: What does the source list for Cc1[nH]c2ccccc2c1CCNCc1ccc(/C=C/C(=O)NO)cc1 [Free Base, N-hydroxy-3-[4-[[[2-(2-methyl-1H-indol-3-yl)ethyl]amino]methyl]phenyl]-2E-2-propenamide]?
Answer: XRPD form after equilibration ([1]; 2-Propanol): No change; XRPD form after equilibration ([1]; Acetone): No change; XRPD form after equilibration ([1]; Ethanol): Changed to new; XRPD form after equilibration ([1]; Ethyl Acetate): No change; XRPD form after equilibration ([1]; Methanol): Changed to new; XRPD form after equilibration ([1]; pH = 6.8 buffer (phosphate)): No change; XRPD form after equilibration ([1]; water): No change; Sorption ([5]; Sample RH % 1.5): 0%; Sorption ([5]; Sample RH % 5): 0.06%; Desorption ([5]; Sample RH % 5): 4.11; Sorption ([5]; Sample RH % 25): 3.39%; Desorption ([5]; Sample RH % 25): 5.11; Sorption ([5]; Sample RH % 50): 5.17%; Desorption ([5]; Sample RH % 50): 5.21; Sorption ([5]; Sample RH % 75): 5.22%; Desorption ([5]; Sample RH % 75): 5.31; Sorption ([5]; Sample RH % 85): 5.24%; Desorption ([5]; Sample RH % 85): 5.33; Sorption ([5]; Sample RH % 95): 5.37%; Desorption ([5]; Sample RH % 95): 5.37

Question: With Cc1[nH]c2ccccc2c1CCNCc1ccc(/C=C/C(=O)NO)cc1 [free base form A, N-hydroxy-3-[4-[[[2-(2-methyl-1H-indol-3-yl)ethyl]amino]methyl]phenyl]-2E-2-propenamide] as the molecule, how does the “solubility in hot ethanol” value ([4]; listed as Form A) read?
Answer: soluble

Question: Which “solubility in hot ethanol” value ([4]; listed as form B) does the source give for Cc1[nH]c2ccccc2c1CCNCc1ccc(/C=C/C(=O)NO)cc1 [free base form B, N-hydroxy-3-[4-[[[2-(2-methyl-1H-indol-3-yl)ethyl]amino]methyl]phenyl]-2E-2-propenamide] here?
Answer: insoluble

Question: Which results are given for Cc1[nH]c2ccccc2c1CCNCc1ccc(/C=C/C(=O)NO)cc1 [free base form C, N-hydroxy-3-[4-[[[2-(2-methyl-1H-indol-3-yl)ethyl]amino]methyl]phenyl]-2E-2-propenamide]?
Answer: form change upon storage ([7]; listed as Form C): spontaneously rehydrate to form HA; form change upon storage ([7]; listed as form C): rehydrate back to form HA; solubility in hot ethanol-water mixture ([4]; hot ethanol-water mixture): soluble

Question: Which aqueous solubility [3] does the source give for Cc1[nH]c2ccccc2c1CCNCc1ccc(/C=C/C(=O)NO)cc1 [free base form HA, N-hydroxy-3-[4-[[[2-(2-methyl-1H-indol-3-yl)ethyl]amino]methyl]phenyl]-2E-2-propenamide] here?
Answer: approximately 0.004 mg/mL

Question: What about the “form change under vacuum” value ([7]; under vacuum even at ambient temperature) of the same molecule?
Answer: completely dehydrates and converts to form C

Question: And the hygroscopicity [2]?
Answer: slightly hygroscopic

Question: What about the solubility ([4]; ethanol, read-out: solubility in ethanol) of the same molecule?
Answer: ~1.5 mg/mL (≈ 4.29 mM)

Question: What about the solubility ([4]; ethyl acetate, read-out: solubility in ethyl acetate) of the same molecule?
Answer: ~5.6 mg/mL (≈ 16 mM)

Question: What about the solubility ([4]; methanol, read-out: solubility in methanol) of the same molecule?
Answer: ~2.3 mg/mL (≈ 6.58 mM)

Question: Which hygroscopicity [2] does the source give for Cc1[nH]c2ccccc2c1CCNCc1ccc(/C=C/C(=O)NO)cc1 [white crystalline solid, N-hydroxy-3-[4-[[[2-(2-methyl-1H-indol-3-yl)ethyl]amino]methyl]phenyl]-2E-2-propenamide] here?
Answer: non-hygroscopic

Question: For Cc1[nH]c2ccccc2c1CCNCc1ccc(/C=C/C(=O)NO)cc1 [yellow powder, N-hydroxy-3-[4-[[[2-(2-methyl-1H-indol-3-yl)ethyl]amino]methyl]phenyl]-2E-2-propenamide], which hygroscopicity [2] is on record?
Answer: very highly hygroscopic
